Assay results as given in article PMC10539361, “Allosteric modulation of the fish taste receptor type 1 (T1R) family by the extracellular chloride ion” (Scientific Reports, 2023).

Target: T1, hT1R2/hT1R3 (Homo sapiens, UniProt Q7RTX0+Q8TE23)
T1 construct: expressed in transfected cells
T1 sequence (Q8TE23 20-839): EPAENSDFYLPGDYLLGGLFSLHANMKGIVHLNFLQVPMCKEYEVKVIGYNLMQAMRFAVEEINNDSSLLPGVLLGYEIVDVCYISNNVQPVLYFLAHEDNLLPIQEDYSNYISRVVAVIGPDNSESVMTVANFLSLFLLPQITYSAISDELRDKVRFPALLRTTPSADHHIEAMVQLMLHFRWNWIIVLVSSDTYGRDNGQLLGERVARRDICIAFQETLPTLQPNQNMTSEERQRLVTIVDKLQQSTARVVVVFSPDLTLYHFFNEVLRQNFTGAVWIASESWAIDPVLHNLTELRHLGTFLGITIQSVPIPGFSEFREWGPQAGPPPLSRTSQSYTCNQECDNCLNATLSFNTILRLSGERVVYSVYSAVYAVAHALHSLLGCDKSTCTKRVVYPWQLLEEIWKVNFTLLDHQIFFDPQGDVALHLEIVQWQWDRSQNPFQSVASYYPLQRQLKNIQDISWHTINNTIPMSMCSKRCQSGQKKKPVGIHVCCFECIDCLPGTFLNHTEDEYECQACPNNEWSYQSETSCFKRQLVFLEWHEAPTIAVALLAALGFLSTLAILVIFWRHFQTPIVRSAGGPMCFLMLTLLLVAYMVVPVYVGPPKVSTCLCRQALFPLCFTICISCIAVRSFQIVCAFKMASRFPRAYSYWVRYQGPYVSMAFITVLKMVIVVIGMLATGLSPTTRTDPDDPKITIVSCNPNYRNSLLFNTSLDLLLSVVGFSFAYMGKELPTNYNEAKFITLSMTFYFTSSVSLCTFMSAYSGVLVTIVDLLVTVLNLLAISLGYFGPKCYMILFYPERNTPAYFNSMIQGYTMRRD
T1 sequence (Q7RTX0 21-852): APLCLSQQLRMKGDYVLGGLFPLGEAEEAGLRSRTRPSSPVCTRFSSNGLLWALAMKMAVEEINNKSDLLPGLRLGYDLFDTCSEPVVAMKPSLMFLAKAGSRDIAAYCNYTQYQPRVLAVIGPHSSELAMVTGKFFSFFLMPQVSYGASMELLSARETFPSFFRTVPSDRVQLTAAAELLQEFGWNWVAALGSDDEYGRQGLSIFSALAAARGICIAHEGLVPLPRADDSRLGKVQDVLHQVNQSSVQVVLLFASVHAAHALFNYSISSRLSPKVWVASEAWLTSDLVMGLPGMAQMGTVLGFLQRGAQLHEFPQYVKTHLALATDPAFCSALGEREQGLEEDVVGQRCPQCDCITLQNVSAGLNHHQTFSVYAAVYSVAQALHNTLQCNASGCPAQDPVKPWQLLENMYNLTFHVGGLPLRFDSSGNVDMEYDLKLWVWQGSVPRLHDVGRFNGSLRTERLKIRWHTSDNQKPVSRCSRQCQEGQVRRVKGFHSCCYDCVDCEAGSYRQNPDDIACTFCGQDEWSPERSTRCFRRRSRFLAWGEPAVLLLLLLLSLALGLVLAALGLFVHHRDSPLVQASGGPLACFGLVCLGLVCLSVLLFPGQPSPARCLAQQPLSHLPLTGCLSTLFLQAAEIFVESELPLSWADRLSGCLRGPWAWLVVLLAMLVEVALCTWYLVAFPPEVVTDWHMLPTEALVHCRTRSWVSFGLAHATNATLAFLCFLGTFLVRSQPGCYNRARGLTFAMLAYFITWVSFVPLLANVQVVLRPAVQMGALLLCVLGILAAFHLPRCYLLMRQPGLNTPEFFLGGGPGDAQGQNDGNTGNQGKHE
Assay: Effect of anions, cations and osmotic pressure on cellular responses, cells in 10 mM Cl- buffer, hT1R2/hT1R3
Format: cell-based
Settings: for cellular response to the salt alone: without agonist, cells in 10 mM Cl- buffer
Protocol: Cells were seeded in 96-well plates coated with ε-poly-L-lysine at approximately 70,000 cells per well. […] Fluorescence changes were monitored at 2 s intervals, as described above. […] Three independent experiments were conducted for each receptor, and representative results are shown as the mean ± SEM (n = 3 replicates). Statistical tests were conducted using KyPlot version 6.0 (KyensLab Inc., Tokyo, Japan). Statistical significance was set at p < 0.05.

| SMILES | cellular response to the salt alone | response intensity to sucralose on coapplication of the salt at higher concentrations (coapplied with 150 µM sucralose, above 60 mM final [Cl-]o or equivalent osmotic pressure) | response intensity to sucralose on coapplication of the salt (coapplied with 150 µM sucralose, up to 60 mM [Cl-]o, compared to response at 10 mM [Cl-]o) |
| --- | --- | --- | --- |
| O=C([O-])[C@H](O)[C@@H](O)[C@H](O)[C@H](O)CO.[Na+] [Na-gluconate, sodium gluconate] | neither NaCl nor Na-gluconate alone elicited cellular responses | – | – |
| [Cl-].[Na+] [NaCl] | neither NaCl nor Na-gluconate alone elicited cellular responses | decreased | no significant difference |
